Laboratory results as given in patent US6894034B1, “Sebum production inhibitors” (Maruha Corporation, priority 1999, dated 2005).

Tested on: male hamster auricular skin tissue sections containing sebaceous glands
Test: Sebum production inhibitory effect on hamster auricular skin tissue sections (radiolabeled acetate incorporation, method of Hall et al.)
Format: cell-based
Conditions: cultured 3 hours in Krebs-Ringer phosphate buffer, vs left auricula control
Procedure: Compounds of the present invention (Compound Nos. 1-10) were evaluated for sebum production inhibitory effect on hamster auricular skin tissue sections containing sebaceous glands.
The method of Hall et al. (Hall, D. W. R., Van den Hoven, W. E., Noordzij-Kamermans, N. J., Jaitly, K. D., Arch. Dermatol. Res., 275, 1 (1983)) was followed. Namely, male hamster auricular skin tissue sections (3 mm in diameter) containing sebaceous glands were cultured for 3 hours in Krebs-Ringer phosphate buffer containing radioactively labeled sodium acetate, and then tissues were hydrolyzed and extracted with hexane. The radioactively labeled fat levels in hexane were measured in a liquid scintillation counter to determine fat production inhibition levels in sebaceous glands. Skin tissues isolated from the right auricula were cultured in Krebs-Ringer phosphate buffer containing 0.01% or 0.05% of compounds of the present invention (Compound Nos. 1-10) (compound systems), while skin tissues from the left auricula of the same hamster were cultured in Krebs-Ringer phosphate buffer containing no compounds of the present invention (control system). The sebum production inhibition percentage was calculated by the equation below from the test data obtained. Sebum production inhibition (%)=[(Sebum production level in control system)−(Sebum production level in each compound system)]/(Sebum production level in control system)×100

[1] = Concentration of compound in the medium 0.01%
[2] = Concentration of compound in the medium 0.05%

Compound | Sebum production inhibition (%) [1] [%] | Sebum production inhibition (%) [2] [%]
CC(=O)N[C@@H]1[C@@H](O[C@@H]2O[C@H](C(=O)O)[C@@H](O[C@@H]3O[C@H](CO)[C@@H](O)[C@H](O[C@@H]4OC(C(=O)O)=C[C@H](O)[C@H]4O)[C@H]3NC(C)=O)[C@H](O)[C@H]2O)[C@H](O)[C@@H](CO)O[C@H]1O [compound 1, 4-deoxy-α-L-threo-hexa-4-enepyranuronosyl-(1→3)-O-2-acetamide-2-deoxy-β-D-glucopyranosyl-(1→4)-3-O-β-D-glucopyranuronosyl-(1→3)-O-2-acetamide-2-deoxy-β-D-glucopyranose] | 15.7 | 17.8
CC(=O)N[C@@H]1[C@@H](O[C@@H]2O[C@H](C(=O)O)[C@@H](O[C@@H]3O[C@H](CO)[C@@H](O)[C@H](O[C@@H]4O[C@H](C(=O)O)[C@@H](O[C@@H]5O[C@H](CO)[C@@H](O)[C@H](O[C@@H]6OC(C(=O)O)=C[C@H](O)[C@H]6O)[C@H]5NC(C)=O)[C@H](O)[C@H]4O)[C@H]3NC(C)=O)[C@H](O)[C@H]2O)[C@H](O)[C@@H](CO)O[C@H]1O [compound 2, 4-deoxy-α-L-threo-hexa-4-enepyranuronosyl-(1→3)-O-2-acetamide-2-deoxy-β-D-glucopyranosyl-(1→4)-3-O-β-D-glucopyranuronosyl-(1→3)-O-2-acetamide-2-deoxy-β-D-glucopyranosyl-(1→4)-3-O-β-D-glucopyranuronosyl-(1→3)-O-2-acetamide-2-deoxy-β-D-glucopyranose] | 28.6 | 50.1
CC(=O)N[C@@H]1[C@@H](O[C@@H]2O[C@H](C(=O)O)[C@@H](O[C@@H]3O[C@H](CO)[C@@H](O)[C@H](O[C@@H]4O[C@H](C(=O)O)[C@@H](O[C@@H]5O[C@H](CO)[C@@H](O)[C@H](O[C@@H]6O[C@H](C(=O)O)[C@@H](O[C@@H]7O[C@H](CO)[C@@H](O)[C@H](O[C@@H]8OC(C(=O)O)=C[C@H](O)[C@H]8O)[C@H]7NC(C)=O)[C@H](O)[C@H]6O)[C@H]5NC(C)=O)[C@H](O)[C@H]4O)[C@H]3NC(C)=O)[C@H](O)[C@H]2O)[C@H](O)[C@@H](CO)O[C@H]1O [compound 3, 4-deoxy-α-L-threo-hexa-4-enepyranuronosyl-(1→3)-O-2-acetamide-2-deoxy-β-D-glucopyranosyl-(1→4)-3-O-β-D-glucopyranuronosyl-(1→3)-O-2-acetamide-2-deoxy-β-D-glucopyranosyl-(1→4)-3-O-β-D-glucopyranuronosyl-(1→3)-O-2-acetamide-2-deoxy-β-D-glucopyranosyl-(1→4)-3-O-β-D-glucopyranuronosyl-(1→3)-O-2-acetamide-2-deoxy-β-D-glucopyranose] | 48.5 | 47.7
CC(=O)N[C@@H]1[C@@H](O[C@@H]2O[C@H](C(=O)O)[C@@H](O[C@@H]3O[C@H](CO)[C@@H](O)[C@H](O[C@@H]4O[C@H](C(=O)O)[C@@H](O[C@@H]5O[C@H](CO)[C@@H](O)[C@H](O[C@@H]6O[C@H](C(=O)O)[C@@H](O[C@@H]7O[C@H](CO)[C@@H](O)[C@H](O[C@@H]8O[C@H](C(=O)O)[C@@H](O[C@@H]9O[C@H](CO)[C@@H](O)[C@H](O[C@@H]%10OC(C(=O)O)=C[C@H](O)[C@H]%10O)[C@H]9NC(C)=O)[C@H](O)[C@H]8O)[C@H]7NC(C)=O)[C@H](O)[C@H]6O)[C@H]5NC(C)=O)[C@H](O)[C@H]4O)[C@H]3NC(C)=O)[C@H](O)[C@H]2O)[C@H](O)[C@@H](CO)O[C@H]1O [compound 4] | 53.4 | 51.0
CC(=O)N[C@H]1[C@H](O[C@H]2[C@H](O)[C@@H](O)[C@H](O[C@@H]([C@H](O)[C@H](O)CO)[C@H](CO)NC(C)=O)O[C@@H]2C(=O)O)O[C@H](CO)[C@@H](O)[C@@H]1O[C@@H]1OC(C(=O)O)=C[C@H](O)[C@H]1O [compound 5, 4-deoxy-α-L-threo-hexa-4-enepyranuronosyl-(1→3)-O-2-acetamide-2-deoxy-β-D-glucopyranosyl-(1→4)-3-O-β-D-glucopyranuronosyl-(1→3)-O-2-acetamide-2-deoxy-β-D-glucopyranitol] | 16.2 | 18.1
CC(=O)N[C@H]1[C@H](O[C@H]2[C@H](O)[C@@H](O)[C@H](O[C@@H]([C@H](O)[C@H](O)CO)[C@H](CO)NC(C)=O)O[C@@H]2C(=O)O)O[C@H](CO)[C@@H](O)[C@@H]1O[C@@H]1O[C@H](C(=O)O)[C@@H](O[C@@H]2O[C@H](CO)[C@@H](O)[C@H](O[C@@H]3OC(C(=O)O)=C[C@H](O)[C@H]3O)[C@H]2NC(C)=O)[C@H](O)[C@H]1O [compound 6, 4-deoxy-α-L-threo-hexa-4-enepyranuronosyl-(1→3)-O-2-acetamide-2-deoxy-β-D-glucopyranosyl-(1→4)-3-O-β-D-glucopyranuronosyl-(13)-O-2-acetamide-2-deoxy-β-D-glucopyranosyl-(1→4)-3-O-β-D-glucopyranuronosyl-(1→3)-O-2-acetamide-2-deoxy-β-D-glucopyranitol] | 30.8 | 55.7
CC(=O)N[C@H]1[C@H](O[C@H]2[C@H](O)[C@@H](O)[C@H](O)O[C@@H]2C(=O)O)O[C@H](CO)[C@@H](O)[C@@H]1O[C@@H]1OC(C(=O)O)=C[C@H](O)[C@H]1O [compound 7, 4-deoxy-α-L-threo-hexa-4-enepyranuronosyl-(1-3)-O-2-acetamide-2-deoxy-β-D-glucopyranosyl-(1→4)-3-O-β-D-glucopyranuronic acid] | 14.2 | 15.9
CC(=O)N[C@H]1[C@H](O[C@H]2[C@H](O)[C@@H](O)[C@H](O)O[C@@H]2C(=O)O)O[C@H](CO)[C@@H](O)[C@@H]1O[C@@H]1O[C@H](C(=O)O)[C@@H](O[C@@H]2O[C@H](CO)[C@@H](O)[C@H](O[C@@H]3OC(C(=O)O)=C[C@H](O)[C@H]3O)[C@H]2NC(C)=O)[C@H](O)[C@H]1O [compound 8, 4-deoxy-α-L-threo-hexa-4-enepyranuronosyl-(1-3)-O-2-acetamide-2-deoxy-β-D-glucopyranosyl-(1-4)-3-O-β-D-glucopyranuronosyl-(13)-O-2-acetamide-2-deoxy-β-D-glucopyranosyl-(1→4)-3-O-β-D-glucopyranuronic acid] | 30.7 | 56.6
CC(=O)N[C@H]1[C@H](O[C@@H]([C@H](O)[C@@H](O)CO)[C@H](O)C(=O)O)O[C@H](CO)[C@@H](O)[C@@H]1O[C@@H]1OC(C(=O)O)=C[C@H](O)[C@H]1O [compound 9, 4-deoxy-α-L-threo-hexa-4-enepyranuronosyl-(1→3)-O-2-acetamide-2-deoxy-β-D-glucopyranosyl-(1→4)-3-O-β-D-glucopyranuronitol] | 13.9 | 20.0
CC(=O)N[C@H]1[C@H](O[C@@H]([C@H](O)[C@@H](O)CO)[C@H](O)C(=O)O)O[C@H](CO)[C@@H](O)[C@@H]1O[C@@H]1O[C@H](C(=O)O)[C@@H](O[C@@H]2O[C@H](CO)[C@@H](O)[C@H](O[C@@H]3OC(C(=O)O)=C[C@H](O)[C@H]3O)[C@H]2NC(C)=O)[C@H](O)[C@H]1O [compound 10, 4-deoxy-α-L-threo-hexa-4-enepyranuronosyl-(1→3)-O-2-acetamide-2-deoxy-β-D-glucopyranosyl-(1→4)-3-O-β-D-glucopyranuronosyl-(1→3)-O-2-acetamide-2-deoxy-β-D-glucopyranosyl-(1→4)-3-O-β-D-glucopyranuronitol] | 39.8 | 55.1
